How the values were obtained:
μ-opioid receptors = conditions: cited from earlier work
[1] = tested on: calcium channels in dorsal root ganglion (DRG) neurons; format: cell-based; conditions: rat DRG neurons
Method: Intact neurons of rat dorsal root ganglia (DRG) were used for whole-cell patch-clamp recordings.
DRGs were isolated from adult Wistar rats (200 ± 300 g) and neurons cultured as described by Lindsay (1988) [35] with minor modifications. The neurons were isolated and washed by gravity in phosphate-buffered saline (PBS). The cells were than incubated with collagenase type IV (sigma, St. Louis, MO, USA) solution (5 mL of Dulbecco’s modified Eagle’s medium—DMEM; 10% v/v fetal bovine serum; penicillin 200 units/mL—streptomycin 200 μg/mL; 12.5 mg of collagenase type IV) for 90 min at 37 °C. After that, ganglions were washed 3 times by gravity in PBS and trypsin solution (2500–6000 BAEE U/ML, sigma, St. Louis, MO, USA) was added. In order to dissociate the DRG neurons, the ganglions were taken up and down with the use of a fine tipped transfer pipette. Cells were then incubated with the trypsin solution for 10 min at 37 °C. After the incubation period, 1 mL of bovine serum albumin (BSA) solution (16% v/v in PBS) was added and cells were more firmly dissociated. The cell suspension was added on the top of 3 mL BSA solution and centrifuged at 500× g for 6 min. The supernatant was discarded and the pellet was resuspended in complete media (DMEM media; 10% v/v fetal bovine serum; 1% v/v penicillin/streptomycin; 0.1% v/v NGF). […]

[2] = tested on: μ-opioid receptor-β-arrestin2 association; assay: BiFC β-arrestin2 recruitment in HEK293T cells; format: cell-based; conditions: HEK293T coexpressing μ-opioid receptor-Yc and β-arrestin2-Yn; 10^−10 M–10^−4 M, 60 min, 37 °C; normalized by 10 μM DAMGO (100%); n = 5
Method: HEK293T were cultured in DMEM (Sigma-Aldrich) supplemented with 10% v/v fetal bovine serum. […] To analyze whether activation of μ-opioid receptor would induce recruitment of β-arrestin2, the Bimolecular fluorescence complementation (BiFC) based detection of μ-opioid receptor-β-arrestin2 association was conducted. The cells were seeded at 33,000 cells/well onto poly (D-lysine)-coated Greiner 655,090 imaging plates. Plates were kept in a humidified incubator at 37 °C filled with 5% CO2 for 24 h. […] After that, cells were fixated with 3% paraformaldehyde in PBS for 10 min at room temperature. Then, cells were washed once with PBS and the cell nuclei were stained for 15 min with H33342 (2 μg/mL in PBS, Sigma, St. Louis, MO, USA). H33342 was then removed by a final PBS wash. Images (4 central sites/well) were acquired automatically on the IX Ultra confocal plate reader, using 405 nm/488 nm laser lines for H33342 and complemented YFP excitation, respectively. Data was analyzed by the use of MetaXpress software (version 5.3, Sunnyvale, CA, USA, 2013) as described by Liu and co-authors [38] and normalized by 10 μM of DAMGO (100%).

## C[C@@H](Cc1ccsc1)NC(=O)NC[C@H](Cc1ccc(O)cc1)N(C)C [PZM21]
μ-opioid receptors
  β-arrestin2 recruitment: minimal β-arrestin2 recruitment

## C=CCN1CC[C@]23c4c5ccc(O)c4O[C@H]2C(=O)CC[C@@]3(O)[C@H]1C5 [naloxone]
[1]; 10 μM naloxone
  effect of naloxone alone on calcium current density: no significant effect on the current density
[1]; 10 μM naloxone for 30 min, then 1 μM PnPP-19
  effect of naloxone pre-incubation on PnPP-19 inhibition of calcium current: completely blocks the activity of PnPP-19

## [D-Ala^2, MePhe^4, Gly-ol^5] encephalin [DAMGO]
[2]
  β-arrestin2 recruitment: could clearly induce β-arrestin2 recruitment

From article PMC5793130, “The Peptide PnPP-19, a Spider Toxin Derivative, Activates μ-Opioid Receptors and Modulates Calcium Channels” (Toxins, 2018)
